Test results from ChEMBL document CHEMBL5241112, “Insights into the recent progress in the medicinal chemistry of pyranopyrimidine analogs” (RSC Med Chem, 2022).
Converted amounts (≈) assume the structure as drawn. Each block holds one molecule with its values, some of them ahead of it.

Legend:
Pseudomonas aeruginosa = assay: Antibacterial activity against Pseudomonas aeruginosa MTCC 741 assessed as diameter of inhibition zone at 0.1 mg/ml incubated for 24 hrs by agar well diffusion method; format: functional; settings: read-out: DIZ
Streptococcus pneumoniae = assay: Antibacterial activity against Streptococcus pneumoniae ATCC BAA-255/R6 assessed as inhibition of bacterial growth incubated for 24 hrs by disk diffusion method; format: functional
Staphylococcus aureus [1] = assay: Antibacterial activity against Staphylococcus aureus assessed as diameter of inhibition zone at 100 ug/ml by disc diffusion method; format: functional; settings: read-out: DIZ
Escherichia coli [2] = assay: Antibacterial activity against Escherichia coli assessed as diameter of inhibition zone at 100 ug/ml by disc diffusion method; format: functional; settings: read-out: DIZ
Escherichia coli [3] = assay: Antibacterial activity against Escherichia coli ATCC 25922 assessed as diameter of inhibition zone at 50 mg/ml incubated for 24 hrs by paper disk diffusion method; format: functional; settings: read-out: DIZ
Aspergillus fumigatus = assay: Antifungal activity against Aspergillus fumigatus ATCC204305 assessed as inhibition of […] growth incubated for 24 hrs by disk diffusion method; format: functional
Klebsiella pneumoniae [4] = assay: Antibacterial activity against Klebsiella pneumoniae MGH 78578 assessed as diameter of inhibition zone at 50 mg/ml incubated for 24 hrs by paper disk diffusion method; format: functional; settings: read-out: DIZ
Escherichia coli [5] = assay: Antibacterial activity against Escherichia coli MTCC 723 assessed as diameter of inhibition zone at 0.1 mg/ml incubated for 24 hrs by agar well diffusion method; format: functional; settings: read-out: DIZ
Klebsiella pneumoniae [6] = assay: Antibacterial activity against Klebsiella pneumoniae MTCC 109 assessed as diameter of inhibition zone at 0.1 mg/ml incubated for 24 hrs by agar well diffusion method; format: functional; settings: read-out: DIZ
Bacillus subtilis [7] = assay: Antibacterial activity against Bacillus subtilis assessed as diameter of inhibition zone at 100 ug/ml by disc diffusion method; format: functional; settings: read-out: DIZ
Klebsiella pneumoniae [8] = assay: Antibacterial activity against Klebsiella pneumoniae assessed as diameter of inhibition zone at 100 ug/ml by disc diffusion method; format: functional; settings: read-out: DIZ
Staphylococcus aureus [9] = assay: Antibacterial activity against Staphylococcus aureus ATCC6538-P assessed as inhibition of bacterial growth incubated for 24 hrs by disk diffusion method; format: functional
Staphylococcus aureus [10] = assay: Antibacterial activity against Staphylococcus aureus MTCC 87 assessed as diameter of inhibition zone at 0.1 mg/ml incubated for 24 hrs by agar well diffusion method; format: functional; settings: read-out: DIZ
Serratia marcescens = assay: Antibacterial activity against Serratia marcescens assessed as diameter of inhibition zone by disc diffusion method; format: functional
Staphylococcus aureus [11] = assay: Antibacterial activity against Staphylococcus aureus assessed as diameter of inhibition zone by disc diffusion method; format: functional
Aspergillus ochraceus = assay: Antifungal activity against Aspergillus ochraceus assessed as diameter of inhibition zone by disc diffusion method; format: functional
Penicillium chrysogenum = assay: Antifungal activity against Penicillium chrysogenum assessed as diameter of inhibition zone by disc diffusion method; format: functional
cells = settings: Homo sapiens, Macrophage
[12] = target: Polyunsaturated fatty acid 5-lipoxygenase (Homo sapiens, UniProt P09917); assay: Inhibition of 5-LOX (unknown origin) by colorimetric analysis
Chain of Polyunsaturated fatty acid 5-lipoxygenase (P09917 whole entry): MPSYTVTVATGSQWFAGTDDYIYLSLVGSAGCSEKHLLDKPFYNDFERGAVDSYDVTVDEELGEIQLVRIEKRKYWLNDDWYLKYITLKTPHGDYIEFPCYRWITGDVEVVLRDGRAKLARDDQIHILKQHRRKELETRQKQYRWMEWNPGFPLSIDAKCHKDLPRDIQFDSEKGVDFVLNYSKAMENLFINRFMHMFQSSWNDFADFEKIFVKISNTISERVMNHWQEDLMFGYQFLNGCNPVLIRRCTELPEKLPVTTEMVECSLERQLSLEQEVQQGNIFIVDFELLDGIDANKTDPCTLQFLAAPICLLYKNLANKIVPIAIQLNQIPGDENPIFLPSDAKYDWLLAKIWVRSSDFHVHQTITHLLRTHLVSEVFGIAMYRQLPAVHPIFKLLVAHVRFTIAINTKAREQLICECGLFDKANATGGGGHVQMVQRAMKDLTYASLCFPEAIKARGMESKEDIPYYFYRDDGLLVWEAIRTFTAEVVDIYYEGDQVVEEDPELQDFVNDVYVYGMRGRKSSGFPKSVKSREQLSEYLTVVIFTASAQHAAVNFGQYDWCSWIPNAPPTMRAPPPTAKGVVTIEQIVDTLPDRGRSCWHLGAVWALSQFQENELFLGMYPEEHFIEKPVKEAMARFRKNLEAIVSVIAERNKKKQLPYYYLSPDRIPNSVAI

Micrococcus luteus [13] = assay: Antibacterial activity against Micrococcus luteus MTCC 2470 assessed as minimum bactericidal concentration incubated for 24 hrs by broth microdilution method; format: functional
Staphylococcus aureus [14] = assay: Antibacterial activity against Staphylococcus aureus MTCC 96 assessed as bacterial growth inhibition incubated for 24 hrs by broth microdilution method; format: functional
Pichia sporocuriosa = assay: Antifungal activity against Pichia sporocuriosa MTCC 4755 assessed as inhibition of fungal growth incubated for 24 hrs by agar well diffusion method; format: functional
Bacillus subtilis [15] = assay: Antibiofilm activity against Bacillus subtilis MTCC 121 assessed as inhibition of biofilm incubated for 24 hrs by crystal violet staining based spectrophotometry; format: functional, organism-based; settings: MTCC 121, 24 h
Bacillus subtilis [16] = assay: Antibacterial activity against Bacillus subtilis MTCC 121 assessed as minimum bactericidal concentration incubated for 24 hrs by broth microdilution method; format: functional
Raoultella planticola [17] = assay: Antibacterial activity against Raoultella planticola MTCC 530 assessed as minimum bactericidal concentration incubated for 24 hrs by broth microdilution method; format: functional; settings: Klebsiella planticola
Escherichia coli [18] = assay: Antibacterial activity against Escherichia coli MTCC 739 assessed as minimum bactericidal concentration incubated for 24 hrs by broth microdilution method; format: functional
Candida albicans [19] = assay: Antifungal activity against Candida albicans MTCC 854 assessed as inhibition of fungal growth incubated for 24 hrs by agar well diffusion method; format: functional
Staphylococcus aureus [20] = assay: Antibacterial activity against Staphylococcus aureus MTCC 96 assessed as minimum bactericidal concentration incubated for 24 hrs by broth microdilution method; format: functional
Micrococcus luteus [21] = assay: Antibacterial activity against Micrococcus luteus MTCC 2470 assessed as bacterial growth inhibition incubated for 24 hrs by broth microdilution method; format: functional
Micrococcus luteus [22] = assay: Antibiofilm activity against Micrococcus luteus MTCC 2470 assessed as inhibition of biofilm incubated for 24 hrs by crystal violet staining based spectrophotometry; format: functional, organism-based; settings: MTCC 2470, 24 h
Candida albicans [23] = assay: Antifungal activity against Candida albicans MTCC 183 assessed as inhibition of fungal growth incubated for 24 hrs by agar well diffusion method; format: functional
Candida albicans [24] = assay: Antifungal activity against Candida albicans MTCC 1637 assessed as inhibition of fungal growth incubated for 24 hrs by agar well diffusion method; format: functional
Staphylococcus aureus [25] = assay: Antibacterial activity against Staphylococcus aureus MLS-16 MTCC 2940 assessed as minimum bactericidal concentration incubated for 24 hrs by broth microdilution method; format: functional
Bacillus subtilis [26] = assay: Antibacterial activity against Bacillus subtilis MTCC 121 assessed as bacterial growth inhibition incubated for 24 hrs by broth microdilution method; format: functional
Candida parapsilosis = assay: Antifungal activity against Candida parapsilosis MTCC 1744 assessed as inhibition of fungal growth incubated for 24 hrs by agar well diffusion method; format: functional; settings: Lodderomyces parapsilosis
Candida albicans [27] = assay: Antifungal activity against Candida albicans MTCC 227 assessed as inhibition of fungal growth incubated for 24 hrs by agar well diffusion method; format: functional
Nakaseomyces glabratus = assay: Antifungal activity against Candida glabrata MTCC 3019 assessed as inhibition of fungal growth incubated for 24 hrs by agar well diffusion method; format: functional
Staphylococcus aureus [28] = assay: Antibacterial activity against Staphylococcus aureus MLS-16 MTCC 2940 assessed as bacterial growth inhibition incubated for 24 hrs by broth microdilution method; format: functional
Pichia kudriavzevii = assay: Antifungal activity against Candida krusei MTCC 3020 assessed as inhibition of fungal growth incubated for 24 hrs by agar well diffusion method; format: functional
Staphylococcus aureus [29] = assay: Antibiofilm activity against Staphylococcus aureus MTCC 96 assessed as inhibition of biofilm incubated for 24 hrs by crystal violet staining based spectrophotometry; format: functional, organism-based; settings: MTCC 96, 24 h
Staphylococcus aureus [30] = assay: Antibiofilm activity against Staphylococcus aureus MLS-16 MTCC 2940 assessed as inhibition of biofilm incubated for 24 hrs by crystal violet staining based spectrophotometry; format: functional, organism-based; settings: MLS-16 MTCC 2940, 24 h
Raoultella planticola [31] = assay: Antibiofilm activity against Raoultella planticola MTCC 530 assessed as inhibition of biofilm incubated for 24 hrs by crystal violet staining based spectrophotometry; format: functional, organism-based; settings: Klebsiella planticola, MTCC 530, 24 h
Escherichia coli [32] = assay: Antibacterial activity against Escherichia coli MTCC 739 assessed as bacterial growth inhibition incubated for 24 hrs by broth microdilution method; format: functional
Escherichia coli [33] = assay: Antibiofilm activity against Escherichia coli MTCC 739 assessed as inhibition of biofilm incubated for 24 hrs by crystal violet staining based spectrophotometry; format: functional, organism-based; settings: MTCC 739, 24 h
Raoultella planticola [34] = assay: Antibacterial activity against Raoultella planticola MTCC 530 assessed as bacterial growth inhibition incubated for 24 hrs by broth microdilution method; format: functional; settings: Klebsiella planticola
Human alphaherpesvirus 1 [35] = assay: Antiviral activity against HSV-1 assessed as inhibition of viral replication at 40 ug; format: functional; design: scale not given: the % may be the effect or the level left; settings: dose 40 µg
Human alphaherpesvirus 1 [36] = assay: Antiviral activity against HSV-1 assessed as inhibition of viral replication at 20 ug; format: functional; design: scale not given: the % may be the effect or the level left; settings: dose 20 µg
[37] = Cytotoxicity against human HDF cells assessed as reduction in cell viability by MTT assay; format: toxicity, cell-based; settings: HDF cells (NHDF cell line)
HT-29 = assay: Antiproliferative activity against human HT-29 cells assessed as reduction in cell viability by MTT assay; format: functional, cell-based

SMILES: CC1(C)S[C@@H]2[C@H](NC(=O)[C@H](N)c3ccc(O)cc3)C(=O)N2[C@H]1C(=O)O [AMOXICILLIN]
zone of inhibition at 100 µg/mL (Pseudomonas aeruginosa): 15 mm
MIC (Streptococcus pneumoniae): 7.8 µg/mL (≈ 21.3 µM)
zone of inhibition at 100 µg/mL (Staphylococcus aureus [1]): 17.5 mm
zone of inhibition at 100 µg/mL (Escherichia coli [2]): 19.5 mm
zone of inhibition at 50000 µg/mL (Escherichia coli [3]): 24 mm
MIC (Aspergillus fumigatus): 15.6 µg/mL (≈ 42.7 µM)
zone of inhibition at 50000 µg/mL (Klebsiella pneumoniae [4]): 15 mm
zone of inhibition at 100 µg/mL (Escherichia coli [5]): 14.9 mm
zone of inhibition at 100 µg/mL (Klebsiella pneumoniae [6]): 13.6 mm
zone of inhibition at 100 µg/mL (Bacillus subtilis [7]): 15.5 mm
zone of inhibition at 100 µg/mL (Klebsiella pneumoniae [8]): 18 mm
MIC (Staphylococcus aureus [9]): 31.3 µg/mL (≈ 85.7 µM)
zone of inhibition at 100 µg/mL (Staphylococcus aureus [10]): 13.8 mm

SMILES: N#CCc1nc2c3c(ncn2n1)Oc1ccc2cc(Br)ccc2c1C3
diameter of the inhibition zone (DIZ) (Serratia marcescens): 23 mm
diameter of the inhibition zone (DIZ) (Staphylococcus aureus [11]): 25 mm
diameter of the inhibition zone (DIZ) (Aspergillus ochraceus): 17 mm
diameter of the inhibition zone (DIZ) (Penicillium chrysogenum): 13 mm

SMILES: Cc1nc2c(c(=O)[nH]1)C(c1ccc([N+](=O)[O-])cc1)c1c(n[nH]c1C)O2 (stereo unspecified)
Activity (Human alphaherpesvirus 1 [35]): 95%
Activity (Human alphaherpesvirus 1 [36]): 63%

The next lines start with results.

IC50 (cells): 3.5 µM
IC50 [12]: 1930 nM
SMILES: N=c1c2c(ncn1-c1ccccc1)Oc1[nH]c(=S)[nH]c(=O)c1C2c1ccc(Cl)cc1 (stereo unspecified)

IC50 (cells): 3.23 µM
IC50 [12]: 1660 nM
SMILES: N#CC1=C(NC[C@]2(O)O[C@H](O)[C@@H](O)[C@@H](O)[C@H]2O)Oc2[nH]c(=S)[nH]c(=O)c2C1c1ccc(Cl)cc1 (stereo partly specified)

MIC (Staphylococcus aureus [14]): 15.6 µg/mL (≈ 35.2 µM)
MIC (Pichia sporocuriosa): 7.8 µg/mL (≈ 17.6 µM)
IC50 (Bacillus subtilis [15]): 2500 nM
MIC (Candida albicans [19]): 7.8 µg/mL (≈ 17.6 µM)
MIC (Micrococcus luteus [21]): 15.6 µg/mL (≈ 35.2 µM)
IC50 (Micrococcus luteus [22]): 2500 nM
MIC (Candida albicans [23]): 7.8 µg/mL (≈ 17.6 µM)
MIC (Candida albicans [24]): 7.8 µg/mL (≈ 17.6 µM)
MIC (Bacillus subtilis [26]): 7.8 µg/mL (≈ 17.6 µM)
MIC (Candida parapsilosis): 7.8 µg/mL (≈ 17.6 µM)
MIC (Candida albicans [27]): 7.8 µg/mL (≈ 17.6 µM)
MIC (Nakaseomyces glabratus): 7.8 µg/mL (≈ 17.6 µM)
MIC (Staphylococcus aureus [28]): 15.6 µg/mL (≈ 35.2 µM)
MIC (Pichia kudriavzevii): 7.8 µg/mL (≈ 17.6 µM)
IC50 (Staphylococcus aureus [29]): 2500 nM
IC50 (Staphylococcus aureus [30]): 2500 nM
MIC (Escherichia coli [32]): 7.8 µg/mL (≈ 17.6 µM)
IC50 (Escherichia coli [33]): 2500 nM
SMILES: COc1ccc(Nc2ncnc3c2C(c2ccc(OC)cc2)c2c(cc(C)oc2=O)O3)cc1 (stereo unspecified)
MBC (Micrococcus luteus [13]): 7.8 µg/mL (≈ 17.6 µM)
MBC (Bacillus subtilis [16]): 7.8 µg/mL (≈ 17.6 µM)
MBC (Raoultella planticola [17]): 7.8 µg/mL (≈ 17.6 µM)
MBC (Escherichia coli [18]): 7.8 µg/mL (≈ 17.6 µM)
MBC (Staphylococcus aureus [20]): 7.8 µg/mL (≈ 17.6 µM)
MBC (Staphylococcus aureus [25]): 7.8 µg/mL (≈ 17.6 µM)
IC50 (Raoultella planticola [31]): 2500 nM
MIC (Raoultella planticola [34]): 7.8 µg/mL (≈ 17.6 µM)

IC50 (HT-29): 23.7 µM
SMILES: N#CC1=C(N)Oc2[nH]c(=O)[nH]c(=O)c2C12c1ccccc1-n1c2nc2ccccc2c1=O (stereo unspecified)
IC50 [37]: > 100 µM
